Data on 2 compounds can be found in patent publication US11299472B2, “Fumarate salt of (R)-3-(1-(2,3-dichloro-4-(pyrazin-2-yl)phenyl)-2,2,2- trifluoroethyl)-1-methyl-1-(1-methylpiperidin-4-yl) urea, methods of preparation, and uses thereof” (Helsinn Healthcare SA, priority 2017, dated 2022).

Structures are written as SMILES.

Data set [1] is described as follows: Rat pharmacokinetic study, HM04 free base vs HM04 fumarate salt (Example 9). In kind it is in vivo, male Sprague Dawley rats.
For data set [2], the target named is T1, human GHSR1a receptor (Homo sapiens, UniProt Q92847).
T1 construct: expressed in transfected cells; host or cells: HEK293
T1 sequence (Q92847 whole entry): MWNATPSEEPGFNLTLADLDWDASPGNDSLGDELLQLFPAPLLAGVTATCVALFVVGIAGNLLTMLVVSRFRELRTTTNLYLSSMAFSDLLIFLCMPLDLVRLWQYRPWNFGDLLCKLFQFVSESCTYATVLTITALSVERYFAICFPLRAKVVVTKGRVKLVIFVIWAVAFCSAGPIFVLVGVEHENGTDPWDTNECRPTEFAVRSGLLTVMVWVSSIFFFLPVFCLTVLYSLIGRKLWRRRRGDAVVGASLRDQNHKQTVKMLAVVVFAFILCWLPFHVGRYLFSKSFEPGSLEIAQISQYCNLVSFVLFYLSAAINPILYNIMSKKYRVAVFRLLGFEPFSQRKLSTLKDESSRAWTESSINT
Briefly: Inositol 1 phosphate (IP-1) inverse agonist assay. Format: cell-based. The settings on record: IP-1 assay. As to the method:
The compounds were diluted with 100% DMSO to make 30 mM stock. On the test day, serial dilutions were prepared starting from the stock solution. For the FLIPR assay: 1) 8 μl of DMSO was added to 2 μl of compound stock solution (30 mM) to produce 10 μl of 6 mM solution; half-fold serial dilutions of the 6 mM solution were produced to generate ten doses; 2) test solutions were obtained by diluting the stock solutions 1/40 in assay buffer (DMSO concentration 2.5%). For the IP-1 assay: 1) 29 μl of DMSO was added to 1 μl of compound stock solution (30 mM) to produce 30 μl of 1 mM solution; half-fold serial dilutions of the 1 mM solution were produced to generate 10 doses; 2) test solutions were obtained by diluting the stock solutions 1/100 in assay buffer (DMSO final concentration 1%).
For the inverse agonist activity study, the same procedure described above was followed up to the day of the test. On the test day, the medium was removed by centrifuging at 700 rpm for 30 seconds and 20 μl/well of assay buffer containing the HM04 or R011 was added. The assay plates were incubated at 37° C. in the dark for 1 hour. IP1-d2 (5 μl) and AB-Cryp (5 μl) were sequentially added to all wells using multidrop Combi. The plate was incubated at room temperature for 1 hour and read on EnVision at 620 nm and 665 nm.

In general, bioavailability refers to the share of a dose that reaches the circulation, judged against a reference dose that is usually intravenous. For orientation: Cmax means the maximum level reached in the sampled fluid or tissue. As to `CN1CCC(N(C)C(=O)N[C@H](c2ccc(-c3cnccn3)c(Cl)c2Cl)C(F)(F)F)CC1.O=C(O)/C=C/C(=O)O` [HM04 fumarate salt, (R)-3-(1-(2,3-dichloro-4-(pyrazin-2-yl)phenyl)-2,2,2-trifluoroethyl)-1-methyl-1-(1-methylpiperidin-4-yl)urea fumarate salt], the HM04 plasma concentration is 107.8 ± 27.8 ng/mL in data set [1] (3 mg/kg oral, 0.25 hours, mean ± S.D., n=3) and 108.3 ± 38.3 ng/mL in data set [1] (3 mg/kg oral, 4 hours, mean ± S.D., n=3). Besides, the AUC in data set [1] (male, Sprague Dawley, plasma, 3 mg/kg intravenous, three rats, read-out: mean AUC following intravenous administration) came out at 2100 ± 358 ng·h/mL. Further, the bioavailability in data set [1] (male, Sprague Dawley, plasma, 3 mg/kg oral vs 3 mg/kg intravenous mean AUC) was determined as 46.1 ± 6.99%. Besides, the Cmax in data set [1] (male, Sprague Dawley, plasma, 3 mg/kg oral, mean ± S.D., n=3) came to 329 ± 185 ng/mL.
With `CN1CCC(N(C)C(=O)N[C@H](c2ccc(-c3cnccn3)c(Cl)c2Cl)C(F)(F)F)CC1` [HM04, (R)-3-(1-(2,3-dichloro-4-(pyrazin-2-yl)phenyl)-2,2,2-trifluoroethyl)-1-methyl-1-(1-methylpiperidin-4-yl)urea], the inverse agonist activity entry in data set [2] is recorded as “did not show a clear significant inverse agonist activity”.
